Our source for the Activity values is ChEMBL document CHEMBL2074329, “Characterization of the transport of a cationic octapeptide, octreotide, in rat bile canalicular membrane: possible involvement of P-glycoprotein” (Biol Pharm Bull, 1998).

Bridge positions count the residues as written; N and C are the ends. Square brackets hold non-standard residues; d marks the D form. Peptide text beside a SMILES is read from it. * marks the point of attachment. Threoninol(2S,3R) = C[C@@H](O)[C@H](CO)N*

This assay concerns the target Multidrug resistance protein 1a (Rattus norvegicus) (UniProt Q6PSM0). Briefly: TP_TRANSPORTER: uptake, inhibited by Verapamil, Vincristine and PSC833 in bile canalicular membrane vesicles from SD rat. It counts as functional, cell membranes. As to conditions: Sprague-Dawley, Bile canalicular membrane vesicle.

Sequence of Multidrug resistance protein 1a (Rattus norvegicus) (Q6PSM0 as listed by the source): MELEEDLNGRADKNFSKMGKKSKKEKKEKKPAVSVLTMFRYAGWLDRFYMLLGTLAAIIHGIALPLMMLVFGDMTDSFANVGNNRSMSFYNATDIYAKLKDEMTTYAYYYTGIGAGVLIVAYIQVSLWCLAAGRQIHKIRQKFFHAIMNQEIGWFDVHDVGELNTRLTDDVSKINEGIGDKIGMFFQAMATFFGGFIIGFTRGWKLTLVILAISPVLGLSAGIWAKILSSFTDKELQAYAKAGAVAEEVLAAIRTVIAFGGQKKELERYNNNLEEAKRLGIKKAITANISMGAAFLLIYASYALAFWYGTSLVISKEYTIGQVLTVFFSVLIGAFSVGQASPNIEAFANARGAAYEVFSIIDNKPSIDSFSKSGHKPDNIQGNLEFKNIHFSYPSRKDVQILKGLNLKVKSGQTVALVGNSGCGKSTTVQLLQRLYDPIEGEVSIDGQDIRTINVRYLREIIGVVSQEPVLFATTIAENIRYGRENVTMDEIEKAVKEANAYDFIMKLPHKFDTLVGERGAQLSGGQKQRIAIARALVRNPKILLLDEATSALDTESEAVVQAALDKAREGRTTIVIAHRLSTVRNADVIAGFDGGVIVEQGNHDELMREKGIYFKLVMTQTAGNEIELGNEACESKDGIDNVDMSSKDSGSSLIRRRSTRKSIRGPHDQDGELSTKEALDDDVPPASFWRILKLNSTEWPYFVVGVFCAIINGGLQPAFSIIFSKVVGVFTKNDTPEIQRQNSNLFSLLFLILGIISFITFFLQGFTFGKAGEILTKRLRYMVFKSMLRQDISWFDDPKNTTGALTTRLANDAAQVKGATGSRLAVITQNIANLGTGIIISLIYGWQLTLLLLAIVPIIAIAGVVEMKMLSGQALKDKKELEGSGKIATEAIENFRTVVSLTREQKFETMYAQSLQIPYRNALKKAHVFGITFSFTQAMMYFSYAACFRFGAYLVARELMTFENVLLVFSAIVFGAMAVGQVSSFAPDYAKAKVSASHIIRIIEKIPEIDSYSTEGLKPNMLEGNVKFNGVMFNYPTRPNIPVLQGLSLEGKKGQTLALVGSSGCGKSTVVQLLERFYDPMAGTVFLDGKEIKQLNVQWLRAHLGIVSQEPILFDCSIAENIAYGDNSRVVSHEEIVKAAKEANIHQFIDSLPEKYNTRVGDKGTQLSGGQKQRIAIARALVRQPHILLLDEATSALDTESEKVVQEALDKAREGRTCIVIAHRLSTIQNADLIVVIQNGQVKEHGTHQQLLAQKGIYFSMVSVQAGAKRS

As for `C[C@@H](O)[C@H](CO)NC(=O)[C@@H]1CSSC[C@H](NC(=O)[C@H](N)Cc2ccccc2)C(=O)N[C@@H](Cc2ccccc2)C(=O)N[C@H](Cc2c[nH]c3ccccc23)C(=O)N[C@@H](CCCCN)C(=O)N[C@@H]([C@@H](C)O)C(=O)N1` (H-[dF]CF[dW]KTC-{Threoninol(2S,3R)}; disulfide 2-7), the Activity entry was “substrate [+]”.
